Data published in US20240246960A1 (adMare Therapeutics Society, priority 2021, published 2024).
Like-named read-outs stand apart in the source and are kept apart here.

Assays:
[1] = target: T1, DNA-PK (Homo sapiens, UniProt P78527); assay: DNA-PK Assay for Biochemical Enzymatic Inhibition (ADP Glo Kinase assay); conditions: Table 1
T1 construct: purchased Invitrogen PR9107A
Protocol: A biochemical assay was performed to identify IC50 values against DNA-PK activity in a two-step reaction with a kinase reaction followed by ADP Glo™ Kinase assay Kit (Promega V9102).
Three-fold serial dilutions of compounds in DMSO were prepared in kinase assay buffer (50 mM HEPES pH 7.5, 20 mM MgCl2, 100 mM KCl, 50 μM DTT, 10 μg/ml calf thymus DNA, 0.01% Tween 20). Kinase assay buffer was used to prepare compound treatments to 0.02% DMSO (dimethyl sulphoxide) content. DMSO controls were prepared to produce a maximum and minimum luminescence signal for normalization. Substrate (Anaspec, AS-60210-5) and ATP (Promega V9102) and ATP mix was prepared by dilution in kinase assay buffer for 434.4 μM and 64.4 μM final assay concentrations, respectively. Compounds and control were added to 25 ng DNA-PK enzyme (Invitrogen, PR9107A) diluted in kinase buffer in assay plate (Corning 267459) and incubated for 15 minutes at room temperature prior to addition of substrate and ATP mix.
Throughout the assay, each time a reagent was added to the microplate, it was centrifuged for 1 minute at 1300 rcf. All reagents were added, and incubations carried out at room temperature. The reaction was then incubated for 60 minutes. ADP-ATP standards at 0, 4, 10, 40, 80, and 100% ADP (prepared as specified in the ADP Glo™ Kinase assay kit) were also added to the microplate at a volume equal to the total kinase reaction. The ADP Glo™ Kinase Assay kit was then used to quantify DNA-PK activity: following the 60-minute incubation, a 1:1 volume of ADP Glo reagent was added to all wells, then following a further 45-minute incubation, a 1:1 volume of Kinase Detection Reagent was added to all wells. After this two-step assay, plates were incubated in a Synergy-Neo2 plate reader for 30 minutes with gentle shaking, followed by endpoint luminescent read Luminescence data was normalized by subtracting the background signal and expressing all background-adjusted values as a percentage of the average maximum signal. The data was then expressed as percent inhibition by subtracting from 100% (i.e. maximum luminescent signal will be 0% inhibition) and the resulting data plotted against ten concentration points on a logarithmic scale, using GraphPad Prism. Non-linear regression analysis was performed on each concentration response curve and the log [inhibitor] vs response—variable slope (four parameters) equation was selected to generate IC50 values.

[2] = target: T2, DNA-PK phosphorylation at Serine 2056 (Homo sapiens, UniProt P78527); assay: Cellular Assay for Inhibition of DNA-PK Phosphorylation at Serine 2056 (FaDu cells, neocarzinostatin, sandwich ELISA); assay type: cell-based; conditions: Table 1
T2 construct: host or cells: FaDu
How it was run: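 Readout was pSer2056 and total DNA-PK, measured by sandwich ELISA on protein-normalized lysates. Prior to lysis, compound was applied to FaDu cells for 1 h (0.3% DMSO), followed by 2 h of 1 μg/mL neocarzinostatin. IC50 values were fitted from log concentration versus % inhibition normalized to DMSO and NCS controls.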

[3] = target: T3, pDNA-PK ser2056 induction in HCT116 spheroids (Homo sapiens, UniProt P78527); assay: Multicellular tumour spheroid + radiation, pDNA-PK inhibition, HCT116; assay type: cell-based; conditions: 20 Gy
T3 construct: endogenous in cells; host or cells: HCT116 multicellular tumour spheroids
Protocol: Multicellular tumour spheroids determination of compound inhibition of pDNA-PK induction following radiation. Tumour spheroids were grown to approximately 0.5 mm in diameter and irradiated with 20 Gy in combination with inhibitor test compounds to determine their potency. Inhibitor concentration for 50% reduction in pDNA-PK induction (IC50) was determined via immunohistochemical staining in spheroid cryosections taken 2 hours following radiation.
Spheroid, Cell Line: […], Immunohistochemical endpoint, pDNA-PK inhibition, EC50 in μm.
(§1) Spheroid+radiation pDNA-PK. Radiation: 20 Gy. Drug: serial dilution 5 or 10 μM down to 3.5 nM (11 wells). Spheroids: 3-6 spheroids per well (300-500 μm diameter). 20% O2 and 5% CO2. 96 well plate format.
Protocol: pre-incubate 1 hours with drug, irradiate with 20 Gy, post-incubate 2 hours with drug, freeze and cryosection ×3 replicates.
Endpoint: fluorescent immunostin pDNA-PK ser2056 and image on microscope.
Analysis: determine EC50 concentration that decreases pDNA-PK induction by 50% after radiation.
Multicellular tumour spheroids determination of compound inhibition of pDNA-PK induction following radiation. Tumour spheroids were grown to approximately 0.5 mm in diameter and irradiated with 20 Gy in combination with inhibitor test compounds to determine their potency. Inhibitor concentration for 50% reduction in pDNA-PK induction (IC50) was determined via immunohistochemical staining in spheroid cryosections taken 2 hours following radiation. For cell survival endpoint 8 Gy radiation was used and 3 hours following radiation spheroids were dissociated, counted and plated for colony forming endpoint.
as §1, with “format. Endpoint: fluorescent immunostain pDNA-PK ser2056 and image on microscope. Analysis: determine EC50 concentrations that decreases pDNA-PK induction […] after irradiation.” for “format.”
Multicellular tumour spheroids were used to determine potency of test compounds in a 3D tissue environment using inhibition of pDNA-PK induction following radiation or cell survival as the endpoint. For the pDNA-PK endpoint HCT116 or FaDU tumour spheroids were grown to approximately 0.5 mm in diameter and irradiated with 20 Gy in combination with inhibitor test compounds to determine their potency. Experiments were carried out in 96 well plates containing 0.7 mls of MEM media containing 10% FBS and 10 mM glucose under 20% O2 & 5% CO2 at 37° C. Following dilution of compounds 1:1000 from DMSO stocks, compounds were serially diluted from 10 μM down to 3.5 nM and 5-10 spheroids added. 96 well plates were constantly stirred to avoid spheroids settling during the course of the experiment. The inhibitor concentration for 50% reduction in pDNA-PK induction (EC50) was determined via immunohistochemical staining in spheroid cryosections taken 2 hours following radiation using anti-pDNA-PK (ser 2056) and fixed immediately in formalin following sectioning. For cell survival endpoint 8 Gy radiation was used and, 3 hours following radiation, spheroids were dissociated, counted and plated for colony forming endpoint. Data presented in the table compound potency as EC50 [μM].

[4] = Example 7, spheroid, cell line HCT115 [sic], 20% O2, read-out: EC50 (pDNA-PK inhibition, immunohistochemical endpoint)
[5] = Example 8, spheroid, read-out: Cell line: HCT116 Immunohistochemical endpoint pDNA-PK inhibition EC50
[6] = Example 9 Study 2, 20% O2, read-out: Spheroid Cell line: HCT116 Immunohistochemical endpoint pDNA-PK inhibition EC50

Compound | IC50 [1] | IC50 [2] | EC50 [3, 4] | EC50 [3, 5] | EC50 [3, 6]
Cn1ccc(N[C@H]2CC[C@@H](Oc3nc(N4CCOCC4)cc4ncccc34)CC2)n1 [Compound 30, 1-methyl-N-((1s,4s)-4-((7-morpholino-1,6-naphthyridin-5-yl)oxy)cyclohexyl)-1H-pyrazol-3-amine] | 1 to 10 nM | 100 to 1000 nM | 10000 to 100000 nM | – | 10000 to 100000 nM
CC(C)c1cnc(N[C@H]2CC[C@@H](Oc3nc(N4CCOCC4)cc4ncccc34)CC2)nc1 [Compound 33, 5-isopropyl-N-((1s,4s)-4-((7-morpholino-1,6-naphthyridin-5-yl)oxy)cyclohexyl)pyrimidin-2-amine] | 1 to 10 nM | < 100 nM | 1000 to 10000 nM | – | 1000 to 10000 nM
Cc1nccnc1N[C@H]1CC[C@@H](Oc2nc(N3CCOCC3)cc3ncccc23)CC1 [Compound 36, 3-methyl-N-((1s,4s)-4-((7-morpholino-1,6-naphthyridin-5-yl)oxy)cyclohexyl)pyrazin-2-amine] | 0.5 to 1 nM | 100 to 1000 nM | 1000 to 10000 nM | – | 1000 to 10000 nM
COc1nccnc1N[C@H]1CC[C@@H](Oc2nc(N3CCOCC3)cc3ncccc23)CC1 [Compound 39, 3-methoxy-N-((1s,4s)-4-((7-morpholino-1,6-naphthyridin-5-yl)oxy)cyclohexyl)pyrazin-2-amine] | < 0.5 nM | 100 to 1000 nM | 1000 to 10000 nM | – | 1000 to 10000 nM
Fc1cnc(N[C@H]2CC[C@@H](Oc3nc(N4CCOCC4)cc4ncccc34)CC2)nc1 [Compound 40, 5-fluoro-N-((1s,4s)-4-((7-morpholino-1,6-naphthyridin-5-yl)oxy)cyclohexyl)pyrimidin-2-amine] | < 0.5 nM | 100 to 1000 nM | 1000 to 10000 nM | – | 1000 to 10000 nM
Clc1cnc(N[C@H]2CC[C@@H](Oc3nc(N4CCOCC4)cc4ncccc34)CC2)nc1 [Compound 41, 5-chloro-N-((1s,4s)-4-((7-morpholino-1,6-naphthyridin-5-yl)oxy)cyclohexyl)pyrimidin-2-amine] | 0.5 to 1 nM | 100 to 1000 nM | 1000 to 10000 nM | – | 1000 to 10000 nM
Ic1cnc(N[C@H]2CC[C@@H](Oc3nc(N4CCOCC4)cc4ncccc34)CC2)nc1 [Compound 42, 5-iodo-N-((1s,4s)-4-((7-morpholino-1,6-naphthyridin-5-yl)oxy)cyclohexyl)pyrimidin-2-amine] | 0.5 to 1 nM | 100 to 1000 nM | 1000 to 10000 nM | – | 1000 to 10000 nM
FC(F)(F)c1ccnc(N[C@H]2CC[C@@H](Oc3nc(N4CCOCC4)cc4ncccc34)CC2)n1 [Compound 47, N-((1s,4s)-4-((7-morpholino-1,6-naphthyridin-5-yl)oxy)cyclohexyl)-4-(trifluoromethyl)pyrimidin-2-amine] | 1 to 10 nM | < 100 nM | 1000 to 10000 nM | – | 1000 to 10000 nM
CN(C)c1ccnc(N[C@H]2CC[C@@H](Oc3nc(N4CCOCC4)cc4ncccc34)CC2)n1 [Compound 50, N4,N4-dimethyl-N2-((1s,4s)-4-((7-morpholino-1,6-naphthyridin-5-yl)oxy)cyclohexyl)pyrimidine-2,4-diamine] | 0.5 to 1 nM | 100 to 1000 nM | 1000 to 10000 nM | – | 1000 to 10000 nM
O=C(O)c1cnc(N[C@H]2CC[C@@H](Oc3nc(N4CCOCC4)cc4ncccc34)CC2)nc1 [Compound 51, 2-(((1s,4s)-4-((7-morpholino-1,6-naphthyridin-5-yl)oxy)cyclohexyl)amino)pyrimidine-5-carboxylic acid] | < 0.5 nM | 1000 to 10000 nM | 500 to 1000 nM | – | 500 to 1000 nM

Other lines, results leading:

IC50 [1] | IC50 [2] | EC50 [3, 4] | EC50 [3, 5] | EC50 [3, 6] | Compound
1 to 10 nM | 100 to 1000 nM | 1000 to 10000 nM | 1000 to 10000 nM | – | Cc1cn([C@H]2CC[C@@H](Oc3nc(N4CCOCC4)cc4ncccc34)CC2)nc1C(F)(F)F [Compound 17e, 4-(5-(((1s,4s)-4-(4-methyl-3-(trifluoromethyl)-1H-pyrazol-1-yl)cyclohexyl)oxy)-1,6-naphthyridin-7-yl)morpholine]
1 to 10 nM | 10000 to 30000 nM | 10000 to 100000 nM | 10000 to 100000 nM | – | Cc1cnn([C@H]2CC[C@@H](Oc3nc(N4CCOCC4)cc4ncccc34)CC2)c1C(F)(F)F [Compound 17f, 4-(5-(((1s,4s)-4-(4-methyl-5-(trifluoromethyl)-1H-pyrazol-1-yl)cyclohexyl)oxy)-1,6-naphthyridin-7-yl)morpholine]
1 to 10 nM | 1000 to 10000 nM | 10000 to 100000 nM | 10000 to 100000 nM | 10000 to 100000 nM | Cc1c(C(F)(F)F)cnn1[C@H]1CC[C@@H](Oc2nc(N3CCOCC3)cc3ncccc23)CC1 [Compound 17h, 4-(5-(((1s,4s)-4-(5-methyl-4-(trifluoromethyl)-1H-pyrazol-1-yl)cyclohexyl)oxy)-1,6-naphthyridin-7-yl)morpholine]
1 to 10 nM | 10000 to 30000 nM | 1000 to 10000 nM | 1000 to 10000 nM | 1000 to 10000 nM | CCOCCOc1cnc(N[C@H]2CC[C@@H](Oc3nc(N4CCOCC4)cc4ncc(Br)cc34)CC2)nc1 [Compound 18b, N-((1s,4s)-4-((3-Bromo-7-morpholino-1,6-naphthyridin-5-yl)oxy)cyclohexyl)-5-(2-ethoxyethoxy)pyrimidin-2-amine]
< 0.5 nM | 100 to 1000 nM | 1000 to 10000 nM | – | 1000 to 10000 nM | Clc1nc(N[C@H]2CC[C@@H](Oc3nc(N4CCOCC4)cc4ncccc34)CC2)c2occc2n1 [Compound 80b, 2-chloro-N-((1s,4s)-4-((7-morpholino-1,6-naphthyridin-5-yl)oxy)cyclohexyl)furo[3,2-d]pyrimidin-4-amine]
